Results published in the NIST ThermoML archive (doi:10.1021/je0602519).
Numbers after ± are expanded uncertainties.

What was measured:
[1] = Liquid; for viscosity / mass density: 101 kPa; for mass density: Pycnometric method; for speed of sound: 101.33 kPa, Frequency=2 MHz, Linear variable-path acoustic interferometer
[2] = xn = mol fraction of the nth substance listed; conditions: 101 kPa, Liquid, x1 = 1; for speed of sound: Frequency=2 MHz, Linear variable-path acoustic interferometer; for mass density: Pycnometric method

| Structure (SMILES) | viscosity ([1]; 303.15 K) [mPa·s] | mass density ([1]; 303.15 K) [kg/m3] | speed of sound ([1]; 303.15 K) [m/s] | viscosity ([1]; 313.15 K) [mPa·s] | mass density ([1]; 313.15 K) [kg/m3] | speed of sound ([1]; 313.15 K) [m/s] | speed of sound ([2]; 303.15 K) [m/s] | mass density ([2]; 303.15 K) [kg/m3] | viscosity ([2]; 303.15 K) [mPa·s] | speed of sound ([2]; 313.15 K) [m/s] | mass density ([2]; 313.15 K) [kg/m3] | viscosity ([2]; 313.15 K) [mPa·s] |
| --- | --- | --- | --- | --- | --- | --- | --- | --- | --- | --- | --- | --- |
| CCCCCCCCCCO [decan-1-ol] | 9.716 ± 0.37 | 822.87 ± 0.29 | 1366 ± 3 | 6.82 ± 0.28 | 815.97 ± 0.31 | 1334 ± 3 |  |  |  |  |  |  |
| CCCCCCCO [heptan-1-ol] | 5.048 ± 0.22 | 814.89 ± 0.29 | 1313 ± 3 | 3.712 ± 0.17 | 807.68 ± 0.3 | 1279 ± 3 |  |  |  |  |  |  |
| CCCCCCCCO [octan-1-ol] | 6.433 ± 0.26 | 818.38 ± 0.29 | 1334 ± 3 | 4.603 ± 0.2 | 811.05 ± 0.3 | 1304 ± 3 |  |  |  |  |  |  |
| Cc1ccccc1 [toluene] | 0.525 ± 0.029 | 856.62 ± 0.31 | 1289 ± 3 | 0.471 ± 0.027 | 847.03 ± 0.32 | 1256 ± 2 |  |  |  |  |  |  |
| Cc1ccccc1 [toluene] + CCCCCCCCCCO |  |  |  |  |  |  | 1289 ± 3 | 856.62 ± 0.31 | 0.525 ± 0.029 | 1256 ± 2 | 847.03 ± 0.32 | 0.471 ± 0.027 |
| Cc1ccccc1 [toluene] + CCCCCCCCO |  |  |  |  |  |  | 1289 ± 3 | 856.62 ± 0.31 | 0.525 ± 0.029 | 1256 ± 2 | 847.03 ± 0.32 | 0.471 ± 0.027 |
| Cc1ccccc1 [toluene] + CCCCCCCO |  |  |  |  |  |  | 1289 ± 3 | 856.62 ± 0.31 | 0.525 ± 0.029 | 1256 ± 2 | 847.03 ± 0.32 | 0.471 ± 0.027 |
